Measured values: patent publication US11696918B2 (priority 2019, dated 2023)
Read-outs that look alike come from different tables or passages of the source.

Experiments:
[1] = single dose
[2] = cited from earlier work
HSV-2 MS strain = type: in vivo, BALB/c mice; conditions: for Survival (surviving/total mice): 28 days; for Clinical Scores Overall Mean: daily vaginal clinical score, 4-point system of Table 4
[3] = cited from earlier work; remark: listed apart in the source
herpes simplex virus = conditions: long-term suppressive treatment; cited from earlier work
HSV-2 = assay: qPCR of HSV DNA copy number in dorsal root ganglia at day 28; type: in vivo, BALB/c mice
HSV infected cells = conditions: in HSV infected cells; cited from earlier work
in vivo = conditions: female, BALB/c, mouse
[4] = for quantifiable in at least 1 of 3 mice through: PCV
[5] = Group 2: Valcyclovir 125 mg/kg po
[6] = Group 1 HSV-2 A 125 mg/kg PO daily
[7] = Group 2 HSV-2 B 63 mg/kg PO daily

CC(C)[C@H](N)C(=O)OCCOCn1cnc2c(=O)[nH]c(N)nc21 [A, Valacyclovir]
Clinical Observations: Dead (animals) [1, 5]: 0 | Clinical Observations: Hypoactivity (animals) [1, 5]: 0 | Clinical Observations: Normal (animals) [1, 5]: 12 | Clinical Observations: Ruffled Fur (animals) [1, 5]: 0 | Clinical Observations: Shoveling (animals) [1, 5]: 0 | Clinical Observations: Squinting (animals) [1, 5]: 0 | protein binding [2]: < 15% | clinical score index (fraction of mice with a clinical score) (HSV-2 MS strain; Group 1 (A alone), A 125 mg/kg): 0.5 | Clinical (mice that had a clinical score/total) (HSV-2 MS strain; [6]): 5/10 | Hair loss (mice that had hair loss/total) (HSV-2 MS strain; [6]): 8/10 | Illness (mice that had an illness score/total) (HSV-2 MS strain; [6]): 10/10 | Survival (surviving/total mice) (HSV-2 MS strain; [6]): 10/10 | Clinical Scores Overall Mean (HSV-2 MS strain; [6]): 0.07413 | half-life ([3]; approximately): 2.5 to 3.4 h | Mean AUC ([3]; in vivo): 2270 to 19620 ng·h/mL | time to reach maximum concentration ([3]; in vivo): 1.6 to 1.9 h | reduction of transmission risk (herpes simplex virus): 46% | Number Undetectable <3 (qPCR copy number/rxn) (HSV-2; [6]): 5 | qPCR Copy number/rxn Overall Mean (HSV-2; [6]): 4.92 Copy number/rxn

CC(=O)OCC(CCn1cnc2cnc(N)nc21)COC(C)=O [B, Famciclovir]
intracellular half-life (HSV infected cells): 10 to 20 h | Clinical Observations: Dead (animals) ([1]; Group 3: Famcyclovir 63 mg/kg po, died during first blood collection): 1 | Clinical Observations: Dead (animals) ([1]; Group 3: Famcyclovir 63 mg/kg po, died during first blood collection, listed as FCV): another animal died | clinical score index (fraction of mice with a clinical score) (HSV-2 MS strain; Group 2 (B alone), B 63 mg/kg): 0.8 | Clinical (mice that had a clinical score/total) (HSV-2 MS strain; [7]): 8/10 | Hair loss (mice that had hair loss/total) (HSV-2 MS strain; [7]): 6/10 | Illness (mice that had an illness score/total) (HSV-2 MS strain; [7]): 9/10 | Survival (surviving/total mice) (HSV-2 MS strain; [7]): 9/10 | Clinical Scores Overall Mean (HSV-2 MS strain; [7]): 0.3125 | bioavailability ([3]; in vivo): 77% | plasma half-life ([3]; in vivo): 2 to 2.5 h | time to reach maximum concentration ([3]; in vivo): 0.5 to 0.75 h | Number Undetectable <3 (qPCR copy number/rxn) (HSV-2; [7]): 2 | qPCR Copy number/rxn Overall Mean (HSV-2; [7]): 28.32 Copy number/rxn

Nc1nc2c(ncn2CCC(CO)CO)c(=O)[nH]1 [PCV, penciclovir]
AUC(0-inf) (in vivo; iv, 63 mg/kg, AUCinf): 15200 ng·h/mL | AUC(0-t) (in vivo; iv, 63 mg/kg, AUClast): 15100 ± 2600 ng·h/mL | AUC(0-t) (in vivo; iv, 63 mg/kg, AUClast Mean): 15100 ng·h/mL | Cmax (in vivo; iv, 63 mg/kg, Cmax): 8800 ng/mL | Cmax (in vivo; iv, 63 mg/kg, Cmax Mean): 8800 ng/mL | Tmax (in vivo; iv, 63 mg/kg, Tmax, Group 1: 125 mg/kg VACV and 63 mg/kg FCV, iv, single dose, plasma): 0.083 h | half-life (in vivo; iv, 63 mg/kg, t1/2, Group 1: 125 mg/kg VACV and 63 mg/kg FCV, iv, single dose, plasma): 1.29 h | half-life (in vivo; iv, 63 mg/kg, t1/2, plasma PCV, Group 1: 125 mg/kg VACV and 63 mg/kg FCV iv): 1.29 h | AUC(0-inf) (in vivo; po, 16 mg/kg, AUCinf): 6200 ng·h/mL | AUC(0-t) (in vivo; po, 16 mg/kg, AUClast Mean): 6100 ng·h/mL | Cmax (in vivo; po, 16 mg/kg, Cmax Mean): 4590 ng/mL | Tmax (in vivo; po, 16 mg/kg, Tmax): 0.5 h | half-life (in vivo; po, 16 mg/kg, t1/2): 1.89 h | AUC(0-inf) (in vivo; po, 32 mg/kg, AUCinf): 5140 ng·h/mL | AUC(0-t) (in vivo; po, 32 mg/kg, AUClast Mean): 5010 ng·h/mL | Cmax (in vivo; po, 32 mg/kg, Cmax Mean): 3150 ng/mL | Tmax (in vivo; po, 32 mg/kg, Tmax): 0.5 h | half-life (in vivo; po, 32 mg/kg, t1/2): 2.34 h | AUC(0-inf) (in vivo; po, 63 mg/kg): 11300 ng·h/mL | AUC(0-t) (in vivo; po, 63 mg/kg): 10600 ± 727 ng·h/mL | Cmax (in vivo; po, 63 mg/kg): 8120 ± 565 ng/mL | Tmax (in vivo; po, 63 mg/kg): 0.25 h | half-life (in vivo; po, 63 mg/kg): 0.97 h | AUC(0-inf) (in vivo; po, 63 mg/kg, AUCinf): 19200 ng·h/mL | AUC(0-t) (in vivo; po, 63 mg/kg, AUClast Mean): 18400 ng·h/mL | Cmax (in vivo; po, 63 mg/kg, Cmax Mean): 7100 ng/mL | Tmax (in vivo; po, 63 mg/kg, Tmax): 0.5 h | half-life (in vivo; po, 63 mg/kg, t1/2): 2.34 h | AUC(0-inf) (in vivo; po, 125 mg/kg, AUCinf): 50900 ng·h/mL | AUC(0-t) (in vivo; po, 125 mg/kg, AUClast Mean): 50200 ng·h/mL | Cmax (in vivo; po, 125 mg/kg, Cmax Mean): 16900 ng/mL | half-life (in vivo; po, 125 mg/kg, t1/2): 1.31 h | AUC(0-inf) (in vivo; po, AUCinf): 85500 ng·h/mL | AUC(0-t) (in vivo; po, AUClast Mean): 84500 ng·h/mL | Cmax (in vivo; po, Cmax Mean): 31200 ng/mL | Tmax (in vivo; po, Tmax, Group 8: VACV 500 mg/kg and FCV 250 mg/kg in combination, po, plasma): 1 h | half-life (in vivo; po, t1/2, Group 8: VACV 500 mg/kg and FCV 250 mg/kg in combination, po, plasma): 4.3 h | half-life (in vivo; po, t1/2, plasma PCV, Group 8: 500 mg/kg VACV + 250 mg/kg FCV po): 4.3 h | t1/2 ([4]; Group 3: 63 mg/kg FCV, po, single dose, plasma): 0.97 h | quantifiable in at least 1 of 3 mice through ([4]; Group 1: 125 mg/kg VACV + 63 mg/kg FCV iv): 24 h | quantifiable in at least 1 of 3 mice through ([4]; Group 5: 63 mg/kg VACV + 32 mg/kg FCV po): 24 h | quantifiable in at least 1 of 3 mice through ([4]; Group 8: 500 mg/kg VACV + 250 mg/kg FCV po): 24 h | AUClast Mean ([4]; female, BALB/c, mouse, in vivo, po, 63 mg/kg): 10609 ng·h/mL
